The data set can be described thus: xn = mol fraction of the nth substance listed. As to conditions: Liquid, Gas absorption technique.

Data on 7 compounds can be found in the NIST ThermoML archive (doi:10.1016/j.jct.2019.02.022).

SMILES strings stand for the structures.

For `Cn1cc[n+](CCO)c1.F[P-](F)(F)(F)(F)F` [3-(2-hydroxyethyl)-1-methylimidazolium hexafluorophosphate] + O=C=O, the binary diffusion coefficient (303.15 K, 105.6 kPa, x2 = 0) worked out at 1.39e-10 m2/s; the binary diffusion coefficient (313.15 K, 109.3 kPa, x2 = 0) is 2.15e-10 m2/s; the binary diffusion coefficient (323.15 K, 110.6 kPa, x2 = 0) is 2.7e-10 m2/s.

In the case of `Cn1cc[n+](CCO)c1.O=S(=O)([N-]S(=O)(=O)C(F)(F)F)C(F)(F)F` + O=C=O, the binary diffusion coefficient stood at 1.31e-10 m2/s (303.15 K, 106.2 kPa, x2 = 0); 2.67e-10 m2/s (313.15 K, 109.9 kPa, x2 = 0); 3.97e-10 m2/s (323.15 K, 111.2 kPa, x2 = 0).

On to `CCn1cc[n+](C)c1.O=S(=O)([N-]S(=O)(=O)C(F)(F)F)C(F)(F)F` + O=C=O, for which the binary diffusion coefficient runs as follows: (303.15 K, 111.3 kPa, x2 = 0) 6.15e-10 m2/s; (313.15 K, 113.7 kPa, x2 = 0) 7.22e-10 m2/s; (323.15 K, 108.4 kPa, x2 = 0) 9.52e-10 m2/s; (333.15 K, 113.2 kPa, x2 = 0) 1.19e-09 m2/s; (343.15 K, 113.7 kPa, x2 = 0) 1.56e-09 m2/s.

For the compound `Cn1cc[n+](CCO)c1.O=S(=O)([N-]S(=O)(=O)C(F)(F)F)C(F)(F)F` + S, the binary diffusion coefficient (303.15 K, 111.7 kPa, x2 = 0) is 2.07e-10 m2/s; the binary diffusion coefficient (313.15 K, 113.9 kPa, x2 = 0) turned out to be 3.35e-10 m2/s; the binary diffusion coefficient (323.15 K, 114.5 kPa, x2 = 0) came out at 5.51e-10 m2/s.

As to `Cn1cc[n+](CCO)c1.O=S(=O)([O-])C(F)(F)F` + S, the binary diffusion coefficient runs as follows: (303.15 K, 107 kPa, x2 = 0) 2.28e-10 m2/s; (313.15 K, 109.6 kPa, x2 = 0) 2.93e-10 m2/s; (323.15 K, 113.9 kPa, x2 = 0) 3.66e-10 m2/s.

On to `S` [hydrogen sulfide] + CCn1cc[n+](C)c1.O=S(=O)([N-]S(=O)(=O)C(F)(F)F)C(F)(F)F, for which the binary diffusion coefficient amounted to 7.98e-10 m2/s (303.15 K, 109.8 kPa, x1 = 0); 9.06e-10 m2/s (313.15 K, 108.6 kPa, x1 = 0); 1.17e-09 m2/s (323.15 K, 109.4 kPa, x1 = 0).

Consider `Cn1cc[n+](CCO)c1.F[P-](F)(F)(F)(F)F` [3-(2-hydroxyethyl)-1-methylimidazolium hexafluorophosphate] + S, for which the binary diffusion coefficient runs as follows: (303.15 K, 111.3 kPa, x2 = 0) 1.55e-10 m2/s; (313.15 K, 113.7 kPa, x2 = 0) 2.37e-10 m2/s; (323.15 K, 108.4 kPa, x2 = 0) 3.74e-10 m2/s.
